What all share (type): cell-based, Bovine
The subject of series [1] is tPA. Put plainly: Zymography of cell extracts, tPA activity, BAE cells. On the procedure:
(§1) Confluent monolayers of BME or BAE cells in 35mm gelatin-coated tissue culture dishes were washed twice with serum-free medium, and were treated with (±)-8-Prenylnaringenin in the absence or presence of bFGF or VEGF in serum-free medium containing Trasylol (200 Kallikrein Inhibitory Units/ml). 15 hours later, cell extracts were prepared and analyzed by zymography and reverse zymography as previously described (Vassalli et al., 1984, J. Exp. Med. 159: 1653-1668).
(§2) Cell extracts (CE) and culture supernatants (Sup) prepared from BAE cells incubated with (±)-8-prenylnaringenin at the indicated concentrations in the absence or presence of bFGF (3ng/ml) for 15 hours, were subjected to zymography (uPA, tPA and tPA/PAI-1 complex activities) and reverse zymography (PAI-1 activity). The second panel marked CE is a longer incubation of the gel shown in the top panel.

Series [2] deals with uPA mRNA. Put plainly: Northern blot analysis, uPA mRNA, BAE cells.
The subject of series [3] is PAI-1. The experiment in a line: Reverse zymography, PAI-1 activity, BME cells. Conditions: 15 hours, serum-free. On the procedure:
as §1
(§3) Cell extracts (CE) and culture supernatants (Sup) prepared from BME cells incubated with (±)-8-prenylnaringenin at the indicated concentrations in the absence or presence of bFGF (10ng/ml) for 15 hours, were subjected to zymography (uPA, tPA and tPA/PAI-1 complex activities) and reverse zymography (PAI-1 activity)

Series [4] has as its system tPA. The experiment in a line: Zymography of cell extracts, tPA activity, BME cells. As for the experimental part:
as §1, §3

The test system of series [5] is BME cells. Put plainly: In vitro angiogenesis assay (invasion of three-dimensional collagen gels). An excerpt:
bFGF and VEGF induce BME and BAE cells to invade three-dimensional collagen gels, and this is accompanied by the formation of capillary like tubular structures (Montesano et al., Proc. Natl. Acad. Sci. USA 83: 7297-7301, 1986; Pepper et al., Biochem. Biophys. Res. Comm. 189: 824-831, 1992; Pepper et al., Exp. Cell Res. 204: 356-363, 1993, Pepper et al., J. Cell Sci. 108: 73-83, 1995). In addition, bFGF and VEGF induce a synergistic invasive response in BME and BAE cells (Pepper et al., 1992, Biochem. Biophys. Res. Commun. 189: 824-831; Pepper et al 1995, J. Cell Sci. 108: 73-83).
Three-dimensional collagen gels were prepared as described (Montesano et al., Cell 42: 469-477, 1985): 8 volumes of a solution of type I collagen from rat tail tendons (approximately 1.5mg/ml) were mixed with 1 volume of 10x minimal essential medium and 1 volume of sodium bicarbonate (11.76mg/ml) on ice, dispensed into 18mm tissue culture wells, and allowed to gel at 37 °C for 10 minutes. […] Invasion was quantitated by determining the total additive length of all cellular structures which had penetrated beneath the surface monolayer either as apparently single cells or in the form of cell cords (Pepper et al., Biochem. Biophys. Res. Comm. 189: 824-831, 1992). Results are expressed as the mean total additive sprout length in µm ± s.e.m., and are from three separate experiments per condition. […]

In series [6] the test system is PAI-1. Put plainly: Reverse zymography, PAI-1 activity, BAE cells. As for the experimental part: as §1, §2
For series [7], the system named is uPA mRNA. The experiment in a line: Northern blot analysis, uPA mRNA, BME cells. Conditions: 10µM, after 9 hours. As for the experimental part:
(§4) (±)-8-Prenylnaringenin or genistein were added to confluent BME cell monolayers to which fresh medium containing 5% DCS had been added 24 hours previously. Total cellular RNA was prepared after the indicated times using Trizol reagent (Life Technologies AG, Basel, Switzrland) according to the manufacturer's instructions. Northern blots, UV cross-linking and methylene blue staining of filters, in vitro transcription, hybridization and post-hybridization washes were as previously described (Pepper et al., 1990, J. Cell Biol. 111: 743-755). […] Autoradiograms were scanned and quantitated using ImageQuant (Molecular Dynamics, Sunnyvale, CA).
(§5) Replicate filters containing total cellular RNA (5 µg/lane) prepared from confluent monolayers of BME cells incubated in the absence (Control) or presence of 10µM (±)-8-prenylnaringenin for the indicated times, were hybridized with ^32P-labelled cRNA probes. RNA integrity and uniformity of loading were determined by staining the filters with methylene blue after transfer and cross-linking (lower panel of the figure); 28S and 18S ribosomal RNAs are shown.

For series [8], the system named is BME cells. The experiment in a line: 5 day proliferation assay. Conditions: Bos taurus; for inhibition at 30 µM: maximal inhibitory effect, read-out: % inhibition of BME cell proliferation. As for the experimental part: BME cells were seeded into gelatin-coated wells of 24 well plates at 10'000 cells per well in α-MEM supplemented with 5% DCS. 24 hours later, fresh medium was added together with 8-Prenylnaringenin at the indicated concentrations or TGF-β1 (1ng/ml), and bFGF (10ng/ml) was added to half the wells. 2 days later, medium and compounds were renewed, and after a further 3 days (i.e. 5 day assay), cells were trypsinized and counted in a FACScan Analyzer. Results are shown as % inhibition calculated from the mean of duplicate wells.
8-Prenylnaringenin reduces endothelial cell number in a 5 day proliferation assay. BME cells were seeded into 24 well plates at 10'000 cells per well in medium containing 5% DCS. 24 hours later, cells were treated with 8-Prenylnaringenin at the indicated concentrations or with TGF-β1 (1ng/ml), and bFGF (10ng/ml) was added to half the wells. Results are shown as % inhibition calculated from the mean of duplicate wells.

For series [9], the system named is tPA mRNA. Put plainly: Northern blot analysis, tPA mRNA, BME cells. The note with it: 10µM, after 9 hours. On the procedure: as §4, §5
For series [10], the system named is PAI-1 mRNA. Put plainly: Northern blot analysis, PAI-1 mRNA, BME cells. As for the experimental part: (§6) (±)-8-Prenylnaringenin or genistein were added to confluent BME cell monolayers to which fresh medium containing 5% DCS had been added 24 hours previously. Total cellular RNA was prepared after the indicated times using Trizol reagent (Life Technologies AG, Basel, Switzrland) according to the manufacturer's instructions. Northern blots, UV cross-linking and methylene blue staining of filters, in vitro transcription, hybridization and post-hybridization washes were as previously described (Pepper et al., 1990, J. Cell Biol. 111: 743-755). [^32P]-labelled cRNA probes were prepared from bovine urokinase-type plasminogen activator (u-PA) (Krätzschmar et al., 1993, Gene 125: 177-183), bovine u-PA receptor (u-PAr) (Krätzschmar et al., 1993, Gene 125: 177-183), human tissue-type PA (t-PA) (Fisher et al., 1985, J. Biol. Chem. 260: 11223-11230) and bovine PA inhibitor-1 (PAI-1) (Pepper et al., 1990, J. Cell Biol. 111: 743-755) cDNAs as previously described (Pepper et al., 1990, J. Cell Biol. 111: 743-755). Filters were exposed to Kodak X-OMAT XAR-5 Scientific Imaging Film (Eastman Kodak Co., Rochester, NY). Autoradiograms were scanned and quantitated using ImageQuant (Molecular Dynamics, Sunnyvale, CA).

Series [11] concerns uPA. The experiment in a line: Zymography of cell extracts, uPA activity, BME cells. The note with it: 15 hours, serum-free. As for the experimental part: as §1, §3
In series [12] the test system is uPA. Put plainly: Zymography of cell extracts, uPA activity, BAE cells. As for the experimental part:
as §1, §2

Series [13] concerns tPA. The experiment in a line: Northern blot analysis, tPA mRNA, BAE cells. Conditions: after 24 hours.
Series [14] has as its system BME cells. The experiment in a line: Toxicity observed in BME cell cultures.
In series [15] the test system is uPAR mRNA. The experiment in a line: Northern blot analysis, uPAR mRNA, BAE cells. As for the experimental part:
as §6

Series [16] concerns uPAR mRNA. The experiment in a line: Northern blot analysis, uPAR mRNA, BME cells. The note with it: 10µM, after 9 hours. As for the experimental part:
as §4, §5

Structures are written as SMILES. Read-outs that look alike come from different tables or passages of the source.

Regarding `CC(C)=CCc1c(O)cc(O)c2c1OC(c1ccc(O)cc1)CC2=O` (racemic) [8-Prenylnaringenin, 5,7-Dihydroxy-2-(4-hydroxyphenyl)-8-(3-methylbut-2-enyl)-chroman-4-on], the tPA activity result was “increased” in [1] (15 hours, serum-free) and “dose-dependent increase” in series [4] (15 hours, serum-free). In addition, the “induction of tPA activity, effect of bFGF co-treatment” value in [1] (with bFGF (3ng/ml)) and in series [4] (with bFGF (10ng/ml)) was “potentiates” in each case. Moreover, the “uPA mRNA levels” value in [2] is recorded as “virtually no effect”. Besides, the PAI-1 activity result in series [3] is “reduction”. Moreover, the “induction of tPA activity, combination with VEGF” value in series [4] (with VEGF, data not shown) was “synergize”. Further, the “in vitro angiogenesis induced by bFGF, VEGF or a combination of the bFGF and VEGF” value in series [5] (BME cells, collagen gel) was “inhibits”. Further, the IC50 was 3 to 10 µM in series [5] (Bos taurus, induced by bFGF (10ng/ml), VEGF (30ng/ml) or both, irrespective of the angiogenic stimulus, read-out: IC50 of inhibition of BME cell invasion) and around 10 µM in series [8] (120 h, 5 day assay, 5% DCS, with or without bFGF, read-out: IC50 of inhibition of BME cell proliferation (cell number)). The PAI-1 entry in series [6] is given as “decrease”. The “uPA mRNA steady state level, maximal effect” value in series [7] is given as 7.5 fold increase. For the same molecule, the inhibition at 30 µM worked out at 67% in series [8] (absence of bFGF) and 75% in [8] (presence of bFGF (10ng/ml)). Also, in series [9], the “tPA mRNA steady state level, maximal effect” value came to 9.6 fold increase. For the same molecule, the “levels of PAI-1 mRNA” value in series [10] is “no significant effect”. The uPA activity entry in series [11] is listed as “dose-dependent increase”; in series [12] (15 hours, serum-free), “increased”. Moreover, in [12] (with bFGF (3ng/ml)), the “bFGF-induced uPA activity” value was “reduces”. The same molecule registered a tPA levels in series [13] of 4.6 fold increase. The “concentration at which frank toxicity was observed” value in series [14] (15 hours, absence of serum) was found to be 30 µM. Besides, in series [14] (presence of 2% serum), the “concentration at which toxicity was seen” value is given as 100 µM. Further, the “uPAR mRNA levels” value in [15] was “virtually no effect”. For the same molecule, the “uPAR mRNA steady state level, maximal effect” value in series [16] is 6.4 fold increase.
